Converted amounts (≈) assume the structure as drawn. Read-outs that look alike come from different tables or passages of the source.

Assay [1] addresses T1, PBP3 from Acinetobacter baumannii (ATCC 19606) (Acinetobacter baumannii, UniProt A0ABX6CK25).
T1 sequence (A0ABX6CK25 64-610): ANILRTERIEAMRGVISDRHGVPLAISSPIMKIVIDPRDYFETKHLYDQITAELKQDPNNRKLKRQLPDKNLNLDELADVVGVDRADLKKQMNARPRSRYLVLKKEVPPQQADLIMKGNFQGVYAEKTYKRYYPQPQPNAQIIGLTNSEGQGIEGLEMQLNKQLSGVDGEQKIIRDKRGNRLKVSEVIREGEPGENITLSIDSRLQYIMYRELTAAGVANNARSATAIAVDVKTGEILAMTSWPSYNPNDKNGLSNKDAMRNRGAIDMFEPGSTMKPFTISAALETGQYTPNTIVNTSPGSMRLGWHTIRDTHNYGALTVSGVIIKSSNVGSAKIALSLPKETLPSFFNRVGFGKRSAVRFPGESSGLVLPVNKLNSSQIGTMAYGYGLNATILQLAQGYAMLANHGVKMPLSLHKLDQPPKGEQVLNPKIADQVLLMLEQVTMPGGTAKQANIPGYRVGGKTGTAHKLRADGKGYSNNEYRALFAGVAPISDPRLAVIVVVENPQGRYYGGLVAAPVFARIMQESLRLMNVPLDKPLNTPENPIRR
Put plainly: Bocillin-FL fluorescence polarization competition binding, A. baumannii PBP3. As to conditions: fluorescence polarization competition binding assay using Bocillin-FL; read-out: A. baumannii PBP3 Potency. The essentials: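 Purified PBPs pre-incubated with inhibitor (E. coli PBP3 1.5 μM, 30 min; P. aeruginosa PBP3 0.75 μM, A. baumannii PBP1a 1 μM and PBP3 0.2 μM, 15 min), then Bocillin-FL 0.1 μM (0.05 μM for PBP1a) added; FP read up to 60 min. EC50 = concentration halving bound Bocillin-FL.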

Assay [2] relates to A. baumannii ATCC 17978. In words: microbe, parasite or virus in culture. As to conditions: Acinetobacter baumannii. The class given is cell-based.
For assay [3], the system named is P. aeruginosa ATCC 35151. Put plainly: microbe, parasite or virus in culture. Particulars: Pseudomonas aeruginosa, ATCC35151, read-out: Minimum inhibitory concentration, P. aeruginosa ATCC 35151. Format: cell-based.
Assay [4] has as its system P. aeruginosa (ΔmexAB-oprM). In words: Broth microdilution MIC in iron-depleted CAMHB (IDM). The class given is cell-based. Particulars: Pseudomonas aeruginosa; iron-depleted CAMHB (IDM); […]; read-out: Minimum inhibitory concentration, P. aeruginosa ΔmexAB-oprM.
In assay [5] the test system is P. aeruginosa CDC-0054. In words: microbe, parasite or virus in culture. The class given is cell-based. As to conditions: Pseudomonas aeruginosa, CDC0054, read-out: Minimum inhibitory concentration, P. aeruginosa CDC-0054.
For assay [6], the system named is A. baumannii 1258916. Put plainly: microbe, parasite or virus in culture. The class given is cell-based, Acinetobacter baumannii.
The test system of assay [7] is A. baumannii CDC-0033. Put plainly: microbe, parasite or virus in culture. The class given is cell-based. As to conditions: Acinetobacter baumannii.
The subject of assay [8] is A. baumannii CDC-0045. In words: microbe, parasite or virus in culture. The class given is cell-based. Particulars: Acinetobacter baumannii.
Assay [9] concerns B. thailandensis ATCC 700388. In words: microbe, parasite or virus in culture. The class given is cell-based. Particulars: Burkholderia thailandensis, ATCC700388, read-out: Minimum inhibitory concentration (MIC), B. thailandensis ATCC 700388.
Assay [10] has as its system B. humptydooensis ATCC BAA-2767. Put plainly: microbe, parasite or virus in culture. The class given is cell-based. Particulars: Burkholderia humptydooensis, ATCCBAA2767, read-out: Minimum inhibitory concentration (MIC), B. humptydooensis ATCC BAA-2767.
The mark [11] stands for this setting: ATCC17978, read-out: Minimum inhibitory concentration (MIC), A. baumannii ATCC 17978.
Where [12] appears, read: Acinetobacter baumannii, 1258916, read-out: Minimum inhibitory concentration (MIC), A. baumannii 1258916.
The mark [13] stands for this setting: CDC0033, read-out: Minimum inhibitory concentration (MIC), A. baumannii CDC-0033.
The mark [14] stands for this setting: CDC0045, read-out: Minimum inhibitory concentration (MIC), A. baumannii CDC-0045.
Where [15] appears, read: ATCC17978, read-out: MIC, A. baumannii ATCC 17978.
[16] abbreviates: Acinetobacter baumannii, 1258916, read-out: MIC, A. baumannii 1258916.
Setting [17] is: CDC0033, read-out: MIC, A. baumannii CDC-0033.
[18] abbreviates: CDC0045, read-out: MIC, A. baumannii CDC-0045.

Regarding `O=C(O)c1c(F)ccc2c1OB(O)[C@@H](NC(=O)C(NC(=O)N1CCN(C3CCN(C(=O)Nc4c(F)ccc(O)c4F)CC3)C(=O)C1=O)c1cc(F)c(O)c(O)c1Cl)C2` (stereo partly drawn) [Example 487, (3R)-3-(2-(2-chloro-5-fluoro-3,4-dihydroxyphenyl)-2-(4-(1-((2,6-difluoro-3-hydroxyphenyl)carbamoyl)piperidin-4-yl)-2,3-dioxopiperazine-1-carboxamido)acetamido)-7-fluoro-2-hydroxy-3,4-dihydro-2H-benzo[e][1,2]oxaborinine-8-carboxylic acid], the IC50 in assay [1] was less than 10 µM. Moreover, the MIC in [2] (setting [11]) was less than 1 µg/mL; in [3] it was less than 1 µg/mL; in assay [4] it was less than 1 µg/mL; in assay [5], less than 1 µg/mL; in [6] (setting [12]) it was less than 1 µg/mL; in assay [7] (setting [13]), 2 to 4 µg/mL (≈ 2.39 to 4.78 µM). Besides, the MIC in assay [8] (setting [14]) is less than 1 µg/mL; in assay [9], less than 1 µg/mL; in assay [10] it was 2 to 4 µg/mL (≈ 2.39 to 4.78 µM).

Turning to `O=C(O)c1c(F)ccc2c1OB(O)[C@@H](NC(=O)C(NC(=O)N1CCN(C3CCN(C(=O)Nc4ccc(F)c(O)c4F)CC3)C(=O)C1=O)c1cc(F)c(O)c(O)c1Cl)C2` (stereo partly drawn) [Example 486, (3R)-3-(2-(2-chloro-5-fluoro-3,4-dihydroxyphenyl)-2-(4-(1-((2,4-difluoro-3-hydroxyphenyl)carbamoyl)piperidin-4-yl)-2,3-dioxopiperazine-1-carboxamido)acetamido)-7-fluoro-2-hydroxy-3,4-dihydro-2H-benzo[e][1,2]oxaborinine-8-carboxylic acid], in assay [1], the IC50 was less than 10 µM. For the same compound, the MIC in [2] (setting [11]) was less than 1 µg/mL; in assay [3] it was less than 1 µg/mL; in assay [4], less than 1 µg/mL; in assay [5] it was less than 1 µg/mL; in assay [6] (setting [12]), less than 1 µg/mL; in assay [7] (setting [13]), 2 to 4 µg/mL (≈ 2.39 to 4.78 µM). Besides, the MIC in assay [8] (setting [14]) was less than 1 µg/mL; in assay [9] it was 2 to 4 µg/mL (≈ 2.39 to 4.78 µM); in assay [10], 2 to 4 µg/mL (≈ 2.39 to 4.78 µM).

On to `O=C(O)c1c(F)ccc2c1OB(O)[C@@H](NC(=O)[C@H](NC(=O)N1CCN(C3CCN(Cc4cccnc4)CC3)C1=O)c1cc(F)c(O)c(O)c1Cl)C2` [Example 492, (R)-3-((R)-2-(2-chloro-5-fluoro-3,4-dihydroxyphenyl)-2-(2-oxo-3-(1-(pyridin-3-ylmethyl)piperidin-4-yl)imidazolidine-1-carboxamido)acetamido)-7-fluoro-2-hydroxy-3,4-dihydro-2H-benzo[e][1,2]oxaborinine-8-carboxylic acid], for which the IC50 in assay [1] was less than 10 µM. The MIC in [2] (setting [11]), in assay [3], in assay [4], in assay [5], in assay [6] (setting [12]) and in assay [7] (setting [13]) was less than 1 µg/mL throughout. Moreover, the MIC in assay [8] (setting [14]), in assay [9] and in [10] was less than 1 µg/mL throughout.

With `O=C(O)c1c(F)ccc2c1OB(O)[C@@H](NC(=O)[C@H](NC(=O)N1CCN(C3CCN(C(=O)Nc4cccc(O)c4)CC3)C1=O)c1cc(F)c(O)c(O)c1Cl)C2` [Example 445, (R)-3-((R)-2-(2-chloro-5-fluoro-3,4-dihydroxyphenyl)-2-(3-(1-((3-hydroxyphenyl)carbamoyl)piperidin-4-yl)-2-oxoimidazolidine-1-carboxamido)acetamido)-7-fluoro-2-hydroxy-3,4-dihydro-2H-benzo[e][1,2]oxaborinine-8-carboxylic acid], the IC50 in [1] was less than 10 µM. The MIC is less than 1 µg/mL in assay [2] (setting [15]); less than 1 µg/mL in assay [3]; less than 1 µg/mL in assay [4]; less than 1 µg/mL in [5]; less than 1 µg/mL in [6] (setting [16]); 2 to 4 µg/mL (≈ 2.59 to 5.18 µM) in assay [7] (setting [17]). Moreover, the MIC in assay [8] (setting [18]), in assay [9] and in [10] was less than 1 µg/mL in each case.

Regarding `O=C(O)c1c(F)ccc2c1OB(O)[C@@H](NC(=O)[C@H](NC(=O)N1CCN(Cc3ccc(O)c(O)c3Cl)C(=O)C1=O)c1ccc(P(=O)(O)O)cc1)C2` (single isomer, unassigned) [Example 160], the IC50 in [1] was less than 10 µM. For the same compound, the MIC in assay [2] (setting [15]), in assay [3], in [4], in assay [5], in assay [6] (setting [16]) and in [7] (setting [17]) was less than 1 µg/mL each time. Further, the MIC in assay [8] (setting [18]), in [9] and in [10] was less than 1 µg/mL throughout.

Turning to `O=C(O)c1c(F)ccc2c1OB(O)[C@@H](NC(=O)[C@H](NC(=O)N1CCN(C3CCN(C(=O)c4ccncc4)CC3)C1=O)c1cc(F)c(O)c(O)c1Cl)C2` [Example 461, (R)-3-((R)-2-(2-chloro-5-fluoro-3,4-dihydroxyphenyl)-2-(3-(1-isonicotinoylpiperidin-4-yl)-2-oxoimidazolidine-1-carboxamido)acetamido)-7-fluoro-2-hydroxy-3,4-dihydro-2H-benzo[e][1,2]oxaborinine-8-carboxylic acid], the IC50 in assay [1] was less than 10 µM. Further, the MIC in assay [2] (setting [15]), in [3], in assay [4], in [5], in assay [6] (setting [16]) and in assay [7] (setting [17]) was less than 1 µg/mL throughout. The MIC in [8] (setting [18]), in assay [9] and in assay [10] was less than 1 µg/mL each time.

On to `O=C(O)c1c(F)ccc2c1OB(O)[C@@H](NC(=O)[C@H](NC(=O)N1CCN(C3CCN(C(=O)c4cc(O)cc(F)c4)CC3)C1=O)c1cc(F)c(O)c(O)c1Cl)C2` (single isomer, unassigned) [Example 436], for which the IC50 in assay [1] was less than 10 µM. Besides, the MIC in assay [2] (setting [15]), in assay [3], in assay [4], in [5], in assay [6] (setting [16]) and in [7] (setting [17]) was less than 1 µg/mL in each case. Besides, the MIC in [8] (setting [18]), in assay [9] and in [10] was less than 1 µg/mL each time.

Take `O=C(O)c1c(F)ccc2c1OB(O)[C@@H](NC(=O)[C@H](NC(=O)N1CCN(C3CCN(C(=O)c4ccc(F)c(O)c4Cl)CC3)C1=O)c1cc(F)c(O)c(O)c1Cl)C2` [Example 438, (R)-3-((R)-2-(3-(1-(2-chloro-4-fluoro-3-hydroxybenzoyl)piperidin-4-yl)-2-oxoimidazolidine-1-carboxamido)-2-(2-chloro-5-fluoro-3,4-dihydroxyphenyl)acetamido)-7-fluoro-2-hydroxy-3,4-dihydro-2H-benzo[e][1,2]oxaborinine-8-carboxylic acid]: in assay [1], the IC50 was less than 10 µM. In addition, the MIC in assay [2] (setting [15]), in assay [3], in assay [4], in [5], in [6] (setting [16]) and in assay [7] (setting [17]) was less than 1 µg/mL in each case. The MIC in [8] (setting [18]), in assay [9] and in assay [10] was less than 1 µg/mL each time.

(Values after patent US20240270762A1, “PENICILLIN-BINDING PROTEIN INHIBITORS” (priority 2021, published 2024).)
